{"source": "patent US20180217128A1", "about": "“METHOD FOR MEASURING IN VIVO INHIBITION OF INTRACELLULAR RNASE” (NATIONAL INSTITUTE OF ADVANCED INDUSTRIAL SCIENCE AND …, priority 2015, published 2018)", "key": {"[1]": {"target": "T1, Ribonuclease (DNase free) Solution (ribonuclease; RNase) (Bos taurus, UniProt P61823)", "T1 sequence (P61823 27-150)": "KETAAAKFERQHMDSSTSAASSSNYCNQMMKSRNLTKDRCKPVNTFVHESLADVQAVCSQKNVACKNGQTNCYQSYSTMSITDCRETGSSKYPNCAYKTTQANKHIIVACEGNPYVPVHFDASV", "details": "100 μM hydrogen peroxide", "description": "In this experiment, how hydrogen peroxide influences the fluorescently labeled double-stranded RNA and a Ribonuclease (DNase free) Solution (ribonuclease; RNase) (Nippon Gene) was investigated.\nA reaction liquid containing 200 nM double-stranded RNA in Opti-MEM (Life Technologies) (50 μL) was provided, and fluorescence was measured at 519 nm with excitation at 488 nm using a Microplate Reader SH-9000 (Corona Electric) (the result at Hour 0). Thereafter, systems in each of which hydrogen peroxide was added at 0 or 100 μM, and Ribonuclease (DNase free) Solution (ribonuclease; RNase) (Nippon Gene) was added at 0 or 0.4 mg/ml, were provided, and each system was incubated at room temperature for 1, 2, or 4 hours, followed by measurement of fluorescence at 519 nm with excitation at 488 nm using a Microplate Reader SH-9000 (the result at Hour 1, 2, or 4). The experiment was carried out for n=3.\nThe result obtained by dividing the fluorescence value at Hour 1, 2, or 4 by the fluorescence value at Hour 0 is shown in FIG. 4."}, "HEK 293 cells": {"test_system": "HEK 293 cells", "details": "hydrogen peroxide 0.01, 1 or 100 μM, measured at Hour 2, 4, 6, 8, n=3", "method": "The viable cell count was determined by the absorbance using a Cell Counting Kit-8 (Dojindo).\nThe cell systems at Hour 2, 4, 6, and 8 were subjected to measurement of the absorbance at 450 nm using a Cell Counting Kit-8 (Dojindo) and a Microplate Reader SH-9000 (Corona Electric) to determine the viable cell count. The experiment was carried out for n=3."}, "[2]": {"target": "T1, Ribonuclease (DNase free) Solution (ribonuclease; RNase)", "test": "Degradation of the fluorescently labeled double-stranded RNA (FRET probe) by ribonuclease, cell-free", "assay_type": "biochemical", "parameters": "purchased Nippon Gene", "details": "200 nM double-stranded RNA in Opti-MEM, 0.4 mg/ml RNase, room temperature 1 hour, vs no RNase, n=3", "excerpt": "First, FRET-Alexa-RNA: 5′-(Alexa Flour 488)-[…]-3′ (SEQ ID NO: 1) as a reporter strand, and FRET-BHQ1-RNA: (5′-[…]-(BHQ1)-3′ (SEQ ID NO:2) as a quencher strand were provided. The base at the 5′ end of the reporter strand is labeled with Alexa Flour 488 through a C6 linker, and the base at the 3′ end of the quencher strand is labeled with BHQ1 (Black Hole Quencher 1) without use of a linker (FIG. 2).\nThe reporter strand and the quencher strand were mixed at a ratio of 1:2 (molar ratio) in a solution of 50 mM HEPES, 500 mM KCl, and 25 mM MgCl2, and the resulting solution was incubated at 99° C. for 5 minutes, at 65° C. for 30 minutes, and then at 25° C. for 30 minutes to prepare a double-stranded RNA.\nThe experiment was carried out for n=3."}, "[3]": {"test_system": "intracellular ribonuclease in HEK 293 cells", "test": "Evaluation of harmfulness to cells using fluorescently labeled double-stranded RNA (intracellular RNA degradation, FRET fluorescence)", "details": "Mercury II Chrolide 100 ng/ml", "excerpt": "That is, the present inventors designed and prepared a double-stranded RNA comprising an RNA strand labeled with a fluorescent dye A that emits fluorescence, and an RNA strand labeled with a fluorescent dye B that quenches emission from a fluorescent dye in the vicinity thereof. When the double-stranded RNA is in a double-stranded state, the fluorescence is in a quenched state due to occurrence of fluorescence resonance energy transfer (FRET) (Non-patent Document 4) between the two kinds of fluorescent dyes.\n[…] After mixing, each reaction liquid was incubated at room temperature for 20 minutes, and then added to HEK 293 cells (2×10^5 cells/ml in 96 well plate), which are human cells. From Hour 0 to Hour 8, fluorescence was measured at 519 nm with excitation at 488 nm using a Microplate Reader SH-9000 (Corona Electric) at one-hour intervals. The experiment was carried out for n=3.\nThe result obtained by dividing the fluorescence values at Hours 1 to 8 by the fluorescence value at Hour 0 is shown in FIG. 5.\nAs reaction liquids, systems each containing 50 μL of Opti-MEM (Life Technologies), 1 μL of Lipofectamine 2000 (Life Technologies), 200 nM double-stranded RNA (the same RNA as in Example 1), and 0 ng/ml, 1 ng/ml, 100 ng/ml, or 100 μg/ml Cisplatin (Wako) were provided. […]"}}, "data": [{"molecule": "OO", "note": "[hydrogen peroxide]", "values": [{"measurement": "fluorescence value (Hour 1, 2 or 4 divided by Hour 0) of system with RNase, compared with RNase system", "setting": "[1]; 200 nM double-stranded RNA, 0.4 mg/ml RNase, room temperature, n=3", "value": "almost the same"}, {"measurement": "fluorescence value (Hour 1, 2 or 4 divided by Hour 0) of system without RNase, vs system with neither RNase nor hydrogen peroxide", "setting": "[1]; 200 nM double-stranded RNA, no RNase, room temperature, n=3", "value": "almost the same"}, {"measurement": "influence on fluorescence value of the RNA FRET Probe and on RNase activity (cell-free)", "setting": "[1]; cell-free, 1-4 hours", "value": "influences neither the fluorescence value of the RNA FRET Probe nor the RNase activity"}, {"measurement": "time at which a decrease in the absorbance (relative to 0 μM taken as 1) was first found", "setting": "HEK 293 cells", "value": 8, "unit": "h"}]}, {"molecule": "fluorescently labeled double-stranded RNA: Double-stranded RNA of FRET-Alexa-RNA reporter strand (SEQ ID NO: 1, Alexa Flour 488) and FRET-BHQ1-RNA quencher strand (SEQ ID NO: 2) (sense CAUAAUCCACCUCCCACUAUUCC; antisense GGAAUAGUGGGAGGUGGAUUAUG; RNA, backbone not given here; Alexa Fluor 488 on reporter, BHQ1 on quencher)", "values": [{"measurement": "fluorescence intensity (fluorescence value at Hour 1 divided by value at Hour 0) on addition of RNase", "setting": "[2]", "value": "obviously increased"}]}, {"molecule": "[Cl][Hg][Cl]", "note": "[Mercury II Chrolide]", "values": [{"measurement": "concentration dependence of the suppression of the fluorescence increase", "setting": "[3]; 10 μg/ml or 1 mg/ml", "value": "dependent on the Mercury II Chrolide concentration"}, {"measurement": "increase in the fluorescence value with time (Hours 1 to 8 divided by Hour 0)", "setting": "[3]; 10 μg/ml or 1 mg/ml vs 0 ng/ml, Hour 0 to 8, n=3", "value": "suppressed"}]}]}
